From BindingDB's records for doi:10.1021/acsmedchemlett.0c00586 (University of Iowa, 2021)

Test: Binding affinity to BTN3A1 in human PBMC-derived Vgamma9/Vdelta2 T cells assessed as induction of Vgamma9Vdelta2 T cells proliferation incubated for 3 days by gamma delta TCR/PE-CD3+ antibody staining based FACS analysis

Structure (SMILES)	EC50 [nM]
CCOC(=O)CNP(=O)(CC/C=C(\C)C=O)Oc1ccccc1 (stereo not given)	20
C/C(C=O)=C\CCP(=O)(OCOC(=O)C(C)(C)C)OCOC(=O)C(C)(C)C	47
C/C(C=O)=C\CCP(=O)(NCC(=O)OC(C)C)Oc1ccccc1 (stereo not given)	49
COC(=O)CNP(=O)(CC/C=C(\C)C=O)Oc1ccccc1 (stereo not given)	47
CC(C)=CCCP(=O)(O)O	> 100000
C/C(=C\CCP(=O)(OCOC(=O)C(C)(C)C)Oc1ccc2ccc(=O)oc2c1)CO (stereo not given)	8
CCOC(=O)CNP(=O)(CCC=C(C)C)Oc1cccc2ccccc12 (stereo not given)	> 100000
C/C(C=O)=C\CCP(=O)(OCOC(=O)C(C)(C)C)Oc1ccc2ccc(=O)oc2c1 (stereo not given)	12
CCOC(=O)CNP(=O)(CC/C=C(C)/C=N/O)Oc1ccccc1 (stereo not given)	790
C/C(C=O)=C\CCP(=O)(OCOC(=O)C(C)(C)C)Oc1ccc2ccccc2c1 (stereo not given)	4.6
